Drawing on patent publication US12344610B2, “APOL1 inhibitors and methods of use” (Maze Therapeutics, Inc., priority 2022, dated 2025), this text covers EC50 for 22 compounds.

Format in all cases: cell-based
For experiment [1], the system named is Trypanosoma brucei Lister 427 VSG221 with APOL1 G2 recombinant protein. Description: APOL1 G2 trypanosome cell rescue assay (Example B5). As to conditions: Trypanosoma brucei, 20 h, read-out: APOL1 G2 Trypanosome Rescue EC50, Trypanosoma brucei Lister 427 VSG221 with APOL1 G2 recombinant protein, 20 hours, CellTiter-Glo; geometric mean of at least 2 assay runs; † = single assay run. The gist of the method:
(§1)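 Luminescent ATP read-out (CellTiter-Glo) of trypanosome viability after 20 h at 37° C. Bloodstream T. brucei Lister 427 VSG221, 250/well in modified HMI-9, were exposed to recombinant mature APOL1 (aa 28-398) from a 2 μg/mL addition, plus compound in 11-point 2-fold series.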
In general terms: In ATP-based viability assays light output follows the ATP content of the culture.

Experiment [2] relates to HEK293 clonal cell line overexpressing APOL1 G1. Description: APOL1 G1 HEK293 cell rescue assay (Example B3). As to conditions: Homo sapiens, HEK293, HEK293 clonal line overexpressing APOL1 G1; geometric mean of at least 2 runs; † = single run; ¥ = concentration at 50% rescue estimated (no sigmoidal curve). In short, it runs like this: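 Rescue of cell death caused by APOL1 G1 overexpression was measured in a clonal HEK293 line. Compounds were tested in duplicate on one plate, and EC50s were geometric means across at least two runs on different days. Some values are estimated 50%-rescue concentrations where curve fitting failed.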

The subject of experiment [3] is Trypanosoma brucei Lister 427 VSG221 with APOL1 G0 recombinant protein. Description: APOL1 G0 trypanosome cell rescue assay (Example B5). As to conditions: Trypanosoma brucei, 20 h, read-out: APOL1 G0 Trypanosome Rescue EC50, Trypanosoma brucei Lister 427 VSG221 with APOL1 G0 recombinant protein, 20 hours, CellTiter-Glo; geometric mean of at least 2 assay runs; † = single assay run. In short, it runs like this: as §1

Some results are limits rather than exact numbers.

Usually EC50 stands for the concentration at which the effect is half-maximal. As to `CNC(=O)C1(S(=O)(=O)c2ccc(OCCN3CCC4(CC3)C(=O)Nc3ccc(Cl)cc34)cc2)CC1` [Compound 226, 1-[4-(2-{5-chloro-2-oxo-1,2-dihydrospiro[indole-3,4′-piperidin]-1′-yl}ethoxy)benzenesulfonyl]-N-methylcyclopropane-1-carboxamide], the EC50 in experiment [1] was 36 nM; in experiment [2], 138 nM; in experiment [3], 80 nM.
`CN(C)C(=O)C1(S(=O)(=O)c2ccc(OCCN3CCC4(CC3)C(=O)Nc3ccc(Cl)cc34)cc2)CC1` [Compound 227, 1-[4-(2-{5-chloro-2-oxo-1,2-dihydrospiro[indole-3,4′-piperidin]-1′-yl}ethoxy)benzenesulfonyl]-N,N-dimethylcyclopropane-1-carboxamide]: the EC50 in experiment [1] is 61.6 nM; in experiment [2], 210 nM; in experiment [3], 142 nM.
With `O=C1Nc2ccc(Cl)cc2C12CCN(CCOc1ccc(S(=O)(=O)C3(C(=O)N4CCC4)CC3)cc1)CC2` [Compound 228, 1′-[2-(4-{[1-(azetidine-1-carbonyl)cyclopropyl]sulfonyl}phenoxy)ethyl]-5-chloro-1,2-dihydrospiro[indole-3,4′-piperidin]-2-one], the EC50 in experiment [1] was 86.2 nM; in experiment [2] it was 426 nM; in experiment [3] it was 196 nM.
The like results for `CNC(=O)c1ccc(OCCN2CCC3(CC2)C(=O)Nc2ccc(Cl)cc23)cc1F` [Compound 229, 4-(2-{5-chloro-2-oxo-1,2-dihydrospiro[indole-3,4′-piperidin]-1′-yl}ethoxy)-2-fluoro-N-methylbenzamide] were, in that order, 186 nM, 396 nM and 417 nM.
The like results for `CN(C)C(=O)c1ccc(OCCN2CCC3(CC2)C(=O)Nc2ccc(Cl)cc23)cc1F` [Compound 230, 4-(2-{5-chloro-2-oxo-1,2-dihydrospiro[indole-3,4′-piperidin]-1′-yl}ethoxy)-2-fluoro-N,N-dimethylbenzamide] were, in that order, 209 nM, 325 nM and 427 nM.
On to `O=C(c1ccc(OCCN2CCC3(CC2)C(=O)Nc2ccc(Cl)cc23)cc1F)N1CCOCC1` [Compound 231, 5-chloro-1′-{2-[3-fluoro-4-(morpholine-4-carbonyl)phenoxy]ethyl}-1,2-dihydrospiro[indole-3,4′-piperidin]-2-one], for which the EC50 in experiment [1] was 66.7 nM; in experiment [2], 169 nM; in experiment [3] it was 135 nM.
As for `O=C(c1ccc(OCCN2CCC3(CC2)C(=O)Nc2ccc(Cl)cc23)cc1F)N1CCS(=O)(=O)CC1` [Compound 232, 4-[4-(2-{5-chloro-2-oxo-1,2-dihydrospiro[indole-3,4′-piperidin]-1′-yl}ethoxy)-2-fluorobenzoyl]-1λ^6-thiomorpholine-1,1-dione], the EC50 in experiment [1] is 41.6 nM; in experiment [2] it was 137 nM; in experiment [3], 97.6 nM.
For the compound `CS(=O)(=O)C1CN(C(=O)c2ccc(OCCN3CCC4(CC3)C(=O)Nc3ccc(Cl)cc34)cc2F)C1` [Compound 233, 5-chloro-1′-{2-[3-fluoro-4-(3-methanesulfonyl-azetidine-1-carbonyl)phenoxy]ethyl}-1,2-dihydrospiro[indole-3,4′-piperidin]-2-one], the results for the EC50 in experiment [1], in experiment [2] and in experiment [3] were 41.1 nM, 244 nM and 81.7 nM, respectively.
The like results for `O=C(c1ccc(OCCN2CCC3(CC2)C(=O)Nc2ccc(Cl)cc23)cc1F)N1CCC1` [Compound 234, 1′-{2-[4-(azetidine-1-carbonyl)-3-fluorophenoxy]ethyl}-5-chloro-1,2-dihydrospiro[indole-3,4′-piperidin]-2-one] were, in that order, 146 nM, 233 nM and 272 nM.
For `O=C(c1ccc(OCCN2CCC3(CC2)C(=O)Nc2ccc(Cl)cc23)cc1F)N1CC(O)C1` [Compound 235, 5-chloro-1′-{2-[3-fluoro-4-(3-hydroxyazetidine-1-carbonyl)phenoxy]ethyl}-1,2-dihydrospiro[indole-3,4′-piperidin]-2-one], the 50% effective concentration (EC50) is 132 nM in experiment [1], 268 nM in experiment [2] and 270 nM in experiment [3].
For `NC1CN(C(=O)c2ccc(OCCN3CCC4(CC3)C(=O)Nc3ccc(Cl)cc34)cc2F)C1` [Compound 236, 1′-{2-[4-(3-aminoazetidine-1-carbonyl)-3-fluorophenoxy]ethyl}-5-chloro-1,2-dihydrospiro[indole-3,4′-piperidin]-2-one] the same measures were 397 nM, 134 nM and 766 nM.
With `CS(=O)(=O)NC1CN(C(=O)c2ccc(OCCN3CCC4(CC3)C(=O)Nc3ccc(Cl)cc34)cc2F)C1` [Compound 237, N-{1-[4-(2-{5-chloro-2-oxo-1,2-dihydrospiro[indole-3,4′-piperidin]-1′-yl}ethoxy)-2-fluorobenzoyl]azetidin-3-yl} methanesulfonamide], the EC50 was 57.2 nM in experiment [1], greater than 3250 nM in experiment [2] and 132 nM in experiment [3].
Consider `N#Cc1ccc2c(c1)C1(CCN(CCOc3ccc(C(N)=O)c(F)c3)CC1)C(=O)N2` [Compound 238, 4-(2-{5-cyano-2-oxo-1,2-dihydrospiro[indole-3,4′-piperidin]-1′-yl}ethoxy)-2-fluorobenzamide], for which the half-maximal effective concentration (EC50) in experiment [1] is 763 nM; in experiment [2], 244 nM; in experiment [3], 1590 nM.
Regarding `O=C(c1ccc(OCCN2CCC3(CC2)C(=O)Nc2ccc(Cl)cc23)cc1F)N1CC2(C1)CS(=O)(=O)C2` [Compound 239, 6-[4-(2-{5-chloro-2-oxo-1,2-dihydrospiro[indole-3,4′-piperidin]-1′-yl}ethoxy)-2-fluorobenzoyl]-2λ^6-thia-6-azaspiro[3.3]heptane-2,2-dione], the concentration for a half-maximal effect (EC50) was 14.8 nM in experiment [1], 191 nM in experiment [2] and 40 nM in experiment [3].
As for `Cc1n[nH]cc1-c1ccc(OCCN2CCC3(CC2)C(=O)Nc2ccc(Cl)cc23)cc1` [Compound 244, 5-chloro-1′-{2-[4-(5-methyl-1H-pyrazol-4-yl)phenoxy]ethyl}-1,2-dihydrospiro[indole-3,4′-piperidin]-2-one], the EC50 in experiment [1] is 49.3 nM; in experiment [2] it was 189 nM; in experiment [3] it was 141 nM.
The like results for `CNC(=O)N1CCc2cc(OCCN3CCC4(CC3)C(=O)Nc3ccc(Cl)cc34)ccc2C1` [Compound 245, 6-(2-{5-chloro-2-oxo-1,2-dihydrospiro[indole-3,4′-piperidin]-1′-yl}ethoxy)-N-methyl-1,2,3,4-tetrahydroisoquinoline-2-carboxamide] were, in that order, 102 nM, 301 nM and 265 nM.
Regarding `Cn1c(=O)[nH]c2cc(OCCN3CCC4(CC3)C(=O)Nc3ccc(Cl)cc34)cnc21` [Compound 247, 5-chloro-1′-[2-({3-methyl-2-oxo-1H,2H,3H-imidazo[4,5-b]pyridin-6-yl}oxy)ethyl]-1,2-dihydrospiro[indole-3,4′-piperidin]-2-one], the EC50 in experiment [1] was 81 nM; in experiment [2], 270 nM; in experiment [3], 186 nM.
Regarding `O=C1Nc2ccc(Cl)cc2C12CCN(CCOc1ccc(S(=O)(=O)C3(CO)CC3)nc1)CC2` [Compound 248, 5-chloro-1′-{2-[(6-{[1-(hydroxymethyl)cyclopropyl]sulfonyl}pyridin-3-yl)oxy]ethyl}-1,2-dihydrospiro[indole-3,4′-piperidin]-2-one], the EC50 in experiment [1] was 37.9 nM; in experiment [2] it was 219 nM; in experiment [3], 86.2 nM.
Take `NC(=O)c1ccc(OCCN2CCC3(CC2)C(=O)Nc2ccc(Cl)cc23)cc1C(F)F` [Compound 249, 4-(2-{5-chloro-2-oxo-1,2-dihydrospiro[indole-3,4′-piperidin]-1′-yl}ethoxy)-2-(difluoromethyl)benzamide]: the EC50 in experiment [1] was 22.1 nM; in experiment [2], 70.6 nM; in experiment [3], 53.8 nM.
`N#Cc1ccc2c(c1)C1(CCN(CCOc3ccc(C(N)=O)c(C(F)F)c3)CC1)C(=O)N2` [Compound 250, 4-(2-{5-cyano-2-oxo-1,2-dihydrospiro[indole-3,4′-piperidin]-1′-yl}ethoxy)-2-(difluoromethyl)benzamide]: the EC50 in experiment [1] is 194 nM; in experiment [2], 192 nM; in experiment [3], 445 nM.
Take `CN1C(=O)C2(CCN(CCOc3ccc(C4(S(C)(=O)=O)COC4)cc3)CC2)c2cc(C#N)ccc21` [Compound 251, 1′-{2-[4-(3-methanesulfonyloxetan-3-yl)phenoxy]ethyl}-1-methyl-2-oxo-1,2-dihydrospiro[indole-3,4′-piperidine]-5-carbonitrile]: the EC50 was 240 nM in experiment [1], roughly 323 nM in experiment [2] and 903 nM in experiment [3].
Take `CN(C)C(=O)C1(c2ccc(OCCN3CCC4(CC3)C(=O)Nc3ccc(C#N)cc34)cc2)COC1` [Compound 254, 3-[4-(2-{5-cyano-2-oxo-1,2-dihydrospiro[indole-3,4′-piperidin]-1′-yl}ethoxy)phenyl]-N,N-dimethyloxetane-3-carboxamide]: the figures for the EC50 in experiment [1], in experiment [2] and in experiment [3] were 252 nM, 2040 nM and 695 nM, respectively.
